# Results taken from patent US5750136A, “Bioadhesive composition and patch” (priority 1995, dated 1998).
smiles,measurement,setting,value
C[C@H]1O[C@@H](O[C@H]2[C@@H](O)C[C@H](O[C@H]3[C@@H](O)C[C@H](O[C@H]4CC[C@@]5(C)[C@H](CC[C@@H]6[C@@H]5C[C@@H](O)[C@]5(C)[C@@H](C7=CC(=O)OC7)CC[C@]65O)C4)O[C@@H]3C)O[C@@H]2C)C[C@H](O)[C@@H]1O [digoxin],bioavailability of digoxin is substantial for a period,from patches of Examples 2-4,at least 24 h
same,delivery from bioadhesive compositions,"in words, Table I",delivered in a sustained fashion
